Measured values from patent US6900239B2, “Tumor chemopotentiation using isocoumarin derivatives” (ILWZ ILEX Products, Inc., priority 2000, dated 2005).

What was measured:
[1] = tested on: MCF7 (breast tumor cells); experiment: Cell growth (WST-1) in the presence of NM-3; type: cell-based; conditions: Homo sapiens, MCF7, 72 h; 3 days culture with NM-3
Description: (§1) To determine the extent to which NM-3 [2-(8-hydroxy-6-methoxy-1-oxo-1H-2-benzopyran-3-yl) propionic acid] inhibited the proliferation of, or was cytotoxic toward, human tumor cells and normal mouse cells, a variety of cell lines were grown in the presence of NM-3. The human cell lines used were K562 (leukemia cells), HT29 (colon tumor cells) HT1080 (reticulum blast sarcoma cells), and MCF7 (breast tumor cells). The mouse cells used were NIH3T3 cells (fibroblasts). All cell lines were cultured in 96-well plates to a density of 2-5×10^3 cells/well. Culture medium (RPMI 1640 plus 10% FBS) alone or containing NM-3 at one of several concentrations tested was then added to the cultures which were allowed to grow for an additional 3 days. To assess cell growth, 10 μl of WST-1 reagent (a chromogenic substrate for living cells) was added to each well and incubation continued for 3 hrs at 37° C. Absorbance at 450 nm was then determined using a plate reader.

HT29 (colon tumor cells) = experiment: Cell growth (WST-1) in the presence of NM-3; type: cell-based; conditions: Homo sapiens, HT-29, 72 h; 3 days culture with NM-3
Description: as §1

[2] = tested on: NIH3T3 cells (fibroblasts); experiment: Cell growth (WST-1) in the presence of NM-3; type: cell-based; conditions: Mus musculus, NIH3T3, 72 h; 3 days culture with NM-3
Description: as §1

K562 (leukemia cells) = experiment: Cell growth (WST-1) in the presence of NM-3; type: cell-based; conditions: Homo sapiens, K562, 72 h; 3 days culture with NM-3
Description: as §1

[3] = tested on: HT1080 (reticulum blast sarcoma cells); experiment: Cell growth (WST-1) in the presence of NM-3; type: cell-based; conditions: Homo sapiens, HT-1080, 72 h; 3 days culture with NM-3
Description: as §1

IMC carcinoma = experiment: Combination with cyclophosphamide, tumor weight; type: in vivo, CDF1 mice; conditions: for Solid Weight mg ± S.D.: day 42
Description: To determine the effect on IMC carcinoma growth of NM-3 treatment combined with simultaneous cyclophosphamide treatment, IMC carcinoma cells (1×10^6 cells per mouse) were subcutaneously transplanted into CDF1 mice (female, 10 weeks old) in the inguinal area. NM-3 which was dissolved using 5% DMSO+Tween80, was continuously orally administered from day 1 to day 41 after transplantation except on day 14, when cyclophosphamide (300 mg/kg) was injected intravenously.

PC6 = experiment: Cell growth (WST-1) in the presence of NM-3; type: cell-based; conditions: Homo sapiens, PC-6, 72 h; 3 days culture with NM-3
[4] = tested on: MDAMB-435 human breast tumor xenografts; experiment: MDAMB-435 orthotopic model, NM-3 with paclitaxel, second study (100 mm^3) and delivery routes; type: in vivo, female NCRNU nude mice
Description: In order to determine the effect of the combination of NM-3 with the cytotoxic drug, paclitaxel on human breast tumor xenografts, female NCRNU nude mice were implanted with MDAMB-435 cells into the subaxillary mammary fat pad. NM-3 was administered via intraperitoneal (i.p.) injection daily at doses ranging from 10-100 mg/kg; paclitaxel was administered via i.p. injection every 7 days, starting on day 0, at 10 mg/kg.
In a second study, treatment was initiated when tumor volumes reached 100 mm^3. Paclitaxel was administered at the fixed dose of 12.5 mg/kg, q7d and NM-3 was dosed at 10 and 100 mg/kg, i.p. daily for 28 days.
A comparison was also made between different delivery routes of NM-3 in the combination studies. NM-3 given i.p. daily, bid, and continuously using Alzet mini osmotic pumps in combination with paclitaxel was evaluated for effectiveness in reducing tumor growth.

Seg-1 tumors = experiment: NM-3 and ionizing radiation, tumor growth; type: in vivo, C57BL/6 nude mice
Description: (§2) The effects of NM-3 and IR on tumor growth were assessed in Lewis Lung Carcinoma (LLC), Seg-1, and SQ-20B tumors implanted in C57BL/6 nude mice.
Seg-1 tumors in the control group and the NM-3-treated group grew to 6.30±0.42 and 6.74±0.62 times original volume by day 15 at which time the animals were sacrificed due to tumor burden. Tumors in the IR (4 doses of 5 Gy) group initially regressed (0.64±0.03 times original volume, day 7) and then regrew (1.83±0.11, day 15). […] (FIG. 8B).

[5] = tested on: MM1.S human multiple myeloma cells; experiment: Cell cycle profile (PI staining, sub-G1 cells); type: cell-based
Description: Apoptosis was determined by staining cells with annexin V-FITC and propidium iodide (PI). Cells were treated with DEX in the presence or absence of NM-3. NM-3 was added 2 hours before the addition of DEX. After 24 hours of DEX exposure, cells were washed twice with cold PBS, resuspended in binding buffer (10 mM HEPES/NaOH (pH 7.4), 140 mM NaCl, 2.5 mM CaCl2), and then stained with annexin V-FITC (Clontech Laboratories) and PI (Boehringer-Manheim). Apoptosis was analyzed by using a flow cytometer (EPICS XL-MCL, Coulter Corp). The cultured cells were also subjected to cell cycle analysis. Briefly, cells were washed twice with PBS and fixed with 70% ethanol. Cells were then washed with 0.5 ml PBS and 1.0 ml phosphate-citric acid buffer (0.2 M Na2HPO4 and 0.1 M citric acid (pH 7.8)), treated with 200 μg/ml RNase for 15 min at 37° C., and stained with 50 μg/ml PI for 30 min at room temperature in the dark. Cells were filtered through 35-μm diameter mesh to remove clumps. Nuclear staining was analyzed by a flow cytometer. Cells with fractional DNA content located on DNA frequency histograms to the left of the G1 peak (sub-G1 cells) were identified as apoptotic cells.

[6] = tested on: Lewis Lung Carcinoma (LLC); experiment: NM-3 and ionizing radiation, tumor growth; type: in vivo, C57BL/6 nude mice
Description: as §2
By day 7, LLC tumors in the control group and the NM-3 group grew to 8.02±1.24 and 6.19±0.44 times original volume, respectively. Animals in these treatment groups were sacrificed on day 7 due to tumor burden. LLC tumors in the IR (20+20 Gy) group initially grew and then regressed to 1.06±0.08 times original volume (day 7). Regression was followed by regrowth to 2.98±0.83 times original volume at day 15 when the experiment was terminated. […] (FIG. 8A)

[7] = NM-3 1 mg/kg p.o. days 1-13, 15-41 alone
[8] = NM-3 5 mg/kg p.o. days 1-13, 15-41 alone
[9] = NM-3 combined with IR (4 doses of 5 Gy)

Compound: COc1cc(O)c2c(=O)oc(C(C)C(=O)O)cc2c1 (centres unmarked) [NM-3, 2-(8-hydroxy-6-methoxy-1-oxo-1H-2-benzopyran-3-yl) propionic acid]
- IC50 [1]: 223 mg/L
- IC50 (HT29 (colon tumor cells)): > 300 mg/L
- IC50 [2]: > 100 mg/L
- IC50 (K562 (leukemia cells)): 250 mg/L
- IC50 [3]: 300 mg/L
- Inhibition (%) (IMC carcinoma; [7]): 10.2%
- Solid Weight mg ± S.D. (IMC carcinoma; [7]): 11,093.0 ± 2040.6 mg
- Inhibition (%) (IMC carcinoma; [8]): 12.6%
- Solid Weight mg ± S.D. (IMC carcinoma; [8]): 10792.4 ± 2979.7 mg
- Tumor weight versus control (IMC carcinoma; NM-3 alone): did not significantly reduce tumor weight
- IC50 (PC6): > 500 mg/L
- % Tumor Growth Inhibition ([4]; NM-3 100 mg/kg I.P. daily alone): 26.67%
- Final Tumor Ratio (V/Vo) +/− SEM ([4]; NM-3 100 mg/kg I.P. daily alone, 28 days): 4.70 ± 0.56 V/Vo
- Mice with Complete Shrinkage ([4]; NM-3 100 mg/kg I.P. daily alone, n 9): 0
- Tumor growth inhibition ([4]; NM-3 alone, daily dose of 10 mg/kg): no significant tumor growth inhibition
- Tumor volume (Seg-1 tumors; NM-3 alone, day 15): 6.74±0.62 times original volume
- Growth delay compared to IR alone group (Seg-1 tumors; [9]): 3 days
- Growth delay compared to the control group (Seg-1 tumors; [9]): 14 days
- Mean tumor volume compared with IR alone (Seg-1 tumors; NM-3 combined with IR (4 doses of 5 Gy), days 15, 17, 19, 21 and 23): significantly reduced mean tumor volume
- Cell cycle profiles ([5]; NM-3 alone, 50-200 μg/ml): only nominal effects
- DEX-induced sub-G1 cells (apoptotic cells) ([5]; NM-3 with DEX 1 μM, 24 hours, concentration-dependent): increased DEX-induced sub-G1 cells
- Tumor volume ([6]; NM-3 alone, day 7): 6.19±0.44 times original volume
- Mean tumor volume compared with IR alone ([6]; NM-3 combined with IR (20+20 Gy), day 3, 4, 5, 9, 11, 13 and 15): significantly reduced mean tumor volume
